# Reference: US5405849A, “Angiotensin II receptor blocking 2,3,6 substituted quinazolinones” (American Cyanamid Company, priority 1993, dated 1995)
# Counter-ions that a name gives are not always drawn.
# Columns and labels:
# [1] = system: angiotensin II (AII) vasopressor response; assay: AII challenge: antagonism of the vasopressor response of angiotensin II in conscious Okamoto-Aoki SHR; format: in vivo, rat (Okamoto-Aoki SHR); details: for inhibition in vivo at 30 mg/kg / inhibition in vivo at 1 mg/kg / inhibition in vivo at 2 mg/kg: Rattus norvegicus
# Text: Conscious Male Okamoto-Aoki SHR, 16-20 weeks old, weighing approximately 330 g are purchased from Charles River Labs (Wilmington, Mass.). Conscious rats are restrained in a supine position with elastic tape. The area at the base of the tail is locally anesthetized by subcutaneous infiltration with 2% procaine. The ventral caudal artery and vein are isolated, and a cannula made of polyethylene (PE) 10-20 tubing (fused together by heat) is passed into the lower abdominal aorta and vena cava, respectively. The cannula is secured, heparinized (1,000 I.U./ml), sealed and the wound is closed. The animals are placed in plastic restraining cages in an upright position. The cannula is attached to a Statham P23Db pressure transducer, and pulsatile blood pressure is recorded to 10-15 minutes with a Gould Brush recorder.
# Angiotensin II (human sequence, Sigma Chem. Co., St. Louis, Mo.) of 0.05 and 0.1 ug/kg i.v. is injected into all rats (predosing response). Then a test compound, vehicle or a known angiotensin II antagonist is administered i.v., i.p. or orally to each set of rats. […] The vasopressor response of angiotensin II is measured for the increase in systolic blood pressure in mmHg. The percentage of antagonism or blockade of the vasopressor response of angiotensin II by a compound is calculated using the vasopressor response (increase in systolic blood pressure) of angiotensin II of each rat predosing the compound as 100%.
# [2] = target: angiotensin II receptors; assay: Angiotensin II receptor binding (displacement of 3H-angiotensin II), rat adrenocortical microsomes; details: 2 nM 3H-angiotensin II
# Protocol: The source of the angiotensin II receptors utilized in the screen is from rat adrenocortical microsomes. The cortices are placed in ice cold sucrose buffer (0.2 m sucrose, 1 mm EDTA, 10 mm Trizma base, pH 7.4) and homogenized in a chilled ground glass tissue grinder. The homogenate is centrifuged at 3000×g for 10 min. and the resultant supernatant is decanted through cheesecloth and centrifuged at 12,000×g for 3 min. […] Binding assays are performed by incubating aliquots of freshly prepared microsomes in the absence or presence of compound (40 uM final concentration). Ten minutes later, ^3 H-angiotensin II is added to each tube (2 nM final concentration) and incubated for 60 minutes at […]. The reaction is terminated by the addition of 3 ml of cold assay buffer without albumin and the bound and free radioactivity is separated rapidly through glass-fiber filters prewetted with assay buffer. After two additional 3 ml rinses, the filters are placed in scintillation fluid and counted in a scintillation counter to determine trapped radioactivity.
# [3] = 1 mg/kg iv, AII .05 ug/kg, 30 min
# [4] = 1 mg/kg iv, AII .1 ug/kg, 30 min
# [5] = 2 mg/kg iv, AII .025 ug/kg, 90 min
# [6] = 2 mg/kg iv, AII .025 ug/kg, 150 min
# [7] = 2 mg/kg iv, AII .05 ug/kg, 90 min
# [8] = 2 mg/kg iv, AII .05 ug/kg, 120 min
# [9] = 2 mg/kg iv, AII .1 ug/kg, 90 min
# [10] = 2 mg/kg iv, AII .1 ug/kg, 120 min
# [11] = iv, 0.5 h, 1 mg/kg iv, AII .1 ug/kg, 30 min
# [12] = iv, 1.5 h, 2 mg/kg iv, AII .025 ug/kg, 90 min
# [13] = iv, 1.5 h, 2 mg/kg iv, AII .05 ug/kg, 90 min
# [14] = iv, 1.5 h, 2 mg/kg iv, AII .1 ug/kg, 90 min
# [15] = iv, 2 h, 2 mg/kg iv, AII .05 ug/kg, 120 min
# [16] = iv, 2 h, 2 mg/kg iv, AII .1 ug/kg, 120 min
# [17] = iv, 2.5 h, 2 mg/kg iv, AII .025 ug/kg, 150 min
# [18] = iv, 2.5 h, 2 mg/kg iv, AII .05 ug/kg, 150 min
structure (smiles),measurement,setting,value
"CCCCc1nc2ccc(C(CC)OC)cc2c(=O)n1Cc1ccc(-c2ccccc2-c2nnn[nH]2)cc1 (centres unmarked) [Example 55, 2-Butyl-6-(1-methoxypropyl)-3-[[2'-(1H-tetrazol-5-yl) [1,1'-biphenyl]-4-yl]methyl]-4(3H) -quinazolinone]",Response change (systolic BP increase to AII),"[1]; 30 mg/kg iv, AII .05 ug/kg, 30 min",10 mmHg
same,Response change (systolic BP increase to AII),"[1]; 30 mg/kg iv, AII .05 ug/kg, 90 min",15 mmHg
same,Response change (systolic BP increase to AII),"[1]; 30 mg/kg iv, AII .05 ug/kg, 150 min",20 mmHg
same,Response change (systolic BP increase to AII),"[1]; 30 mg/kg iv, AII .1 ug/kg, 30 min",15 mmHg
same,Response change (systolic BP increase to AII),"[1]; 30 mg/kg iv, AII .1 ug/kg, 90 min",5 mmHg
same,Response change (systolic BP increase to AII),"[1]; 30 mg/kg iv, AII .1 ug/kg, 150 min",5 mmHg
same,inhibition in vivo at 30 mg/kg,"[1]; iv, 0.5 h, 30 mg/kg iv, AII .05 ug/kg, 30 min",82%
same,inhibition in vivo at 30 mg/kg,"[1]; iv, 0.5 h, 30 mg/kg iv, AII .1 ug/kg, 30 min",73%
same,inhibition in vivo at 30 mg/kg,"[1]; iv, 1.5 h, 30 mg/kg iv, AII .05 ug/kg, 90 min",73%
same,inhibition in vivo at 30 mg/kg,"[1]; iv, 1.5 h, 30 mg/kg iv, AII .1 ug/kg, 90 min",91%
same,inhibition in vivo at 30 mg/kg,"[1]; iv, 2.5 h, 30 mg/kg iv, AII .05 ug/kg, 150 min",64%
same,inhibition in vivo at 30 mg/kg,"[1]; iv, 2.5 h, 30 mg/kg iv, AII .1 ug/kg, 150 min",91%
same,IC50,[2],5 nM
"CCCCc1nc2ccc(C(OC)c3ccccc3)cc2c(=O)n1Cc1ccc(-c2ccccc2-c2nnn[nH]2)cc1 (centres unmarked) [Example 56, 2-Butyl-6-(methoxyphenylmethyl)-3-[[2'-(1H-tetrazol-5-yl)[1,1'-biphenyl]-4-yl]methyl]-4(3H)-quinazolinone]",Response change (systolic BP increase to AII),"[1]; 1 mg/kg iv, AII .025 ug/kg, 15 min",18 mmHg
same,Response change (systolic BP increase to AII),"[1]; 1 mg/kg iv, AII .025 ug/kg, 30 min",27 mmHg
same,Response change (systolic BP increase to AII),"[1]; 1 mg/kg iv, AII .025 ug/kg, 60 min",20 mmHg
same,Response change (systolic BP increase to AII),"[1]; 1 mg/kg iv, AII .05 ug/kg, 15 min",15 mmHg
same,Response change (systolic BP increase to AII),[1]; [3],15 mmHg
same,Response change (systolic BP increase to AII),"[1]; 1 mg/kg iv, AII .05 ug/kg, 60 min",20 mmHg
same,Response change (systolic BP increase to AII),"[1]; 1 mg/kg iv, AII .1 ug/kg, 15 min",15 mmHg
same,Response change (systolic BP increase to AII),[1]; [4],20 mmHg
same,Response change (systolic BP increase to AII),"[1]; 1 mg/kg iv, AII .1 ug/kg, 60 min",30 mmHg
same,Response change (systolic BP increase to AII),[1]; [5],10 mmHg
same,Response change (systolic BP increase to AII),"[1]; 2 mg/kg iv, AII .025 ug/kg, 120 min",20 mmHg
same,Response change (systolic BP increase to AII),[1]; [6],15 mmHg
same,Response change (systolic BP increase to AII),[1]; [7],15 mmHg
same,Response change (systolic BP increase to AII),[1]; [8],15 mmHg
same,Response change (systolic BP increase to AII),"[1]; 2 mg/kg iv, AII .05 ug/kg, 150 min",10 mmHg
same,Response change (systolic BP increase to AII),[1]; [9],5 mmHg
same,Response change (systolic BP increase to AII),[1]; [10],15 mmHg
same,Response change (systolic BP increase to AII),"[1]; 2 mg/kg iv, AII .1 ug/kg, 150 min",20 mmHg
same,inhibition in vivo at 1 mg/kg,"[1]; iv, 0.25 h, 1 mg/kg iv, AII .025 ug/kg, 15 min",40%
same,inhibition in vivo at 1 mg/kg,"[1]; iv, 0.25 h, 1 mg/kg iv, AII .05 ug/kg, 15 min",57%
same,inhibition in vivo at 1 mg/kg,"[1]; iv, 0.25 h, 1 mg/kg iv, AII .1 ug/kg, 15 min",57%
same,inhibition in vivo at 1 mg/kg,"[1]; iv, 0.5 h, 1 mg/kg iv, AII .025 ug/kg, 30 min",27%
same,inhibition in vivo at 1 mg/kg,"[1]; iv, 0.5 h, 1 mg/kg iv, AII .05 ug/kg, 30 min",57%
same,inhibition in vivo at 1 mg/kg,[1]; [11],43%
same,inhibition in vivo at 1 mg/kg,"[1]; iv, 1 h, 1 mg/kg iv, AII .025 ug/kg, 60 min",33%
same,inhibition in vivo at 1 mg/kg,"[1]; iv, 1 h, 1 mg/kg iv, AII .05 ug/kg, 60 min",43%
same,inhibition in vivo at 1 mg/kg,"[1]; iv, 1 h, 1 mg/kg iv, AII .1 ug/kg, 60 min",14%
same,inhibition in vivo at 2 mg/kg,[1]; [12],67%
same,inhibition in vivo at 2 mg/kg,[1]; [13],57%
same,inhibition in vivo at 2 mg/kg,[1]; [14],86%
same,inhibition in vivo at 2 mg/kg,"[1]; iv, 2 h, 2 mg/kg iv, AII .025 ug/kg, 120 min",33%
same,inhibition in vivo at 2 mg/kg,[1]; [15],57%
same,inhibition in vivo at 2 mg/kg,[1]; [16],57%
same,inhibition in vivo at 2 mg/kg,[1]; [17],50%
same,inhibition in vivo at 2 mg/kg,[1]; [18],71%
same,inhibition in vivo at 2 mg/kg,"[1]; iv, 2.5 h, 2 mg/kg iv, AII .1 ug/kg, 150 min",43%
same,IC50,[2],8.6 nM
"CCCCc1nc2ccc(C(C)(C)O)cc2c(=O)n1Cc1ccc(-c2ccccc2-c2nnn[nH]2)cc1 [Example 61, 2-Butyl-6-(1-hydroxy-1-methylethyl)-3-[[2'-(1H-(tetrazol-5-yl) [1,1'-biphenyl]-4-yl]methyl]-4(3H)-quinazolinone monosodium salt]",Response change (systolic BP increase to AII),[1]; [3],40 mmHg
same,Response change (systolic BP increase to AII),"[1]; 1 mg/kg iv, AII .05 ug/kg, 45 min",25 mmHg
same,Response change (systolic BP increase to AII),"[1]; 1 mg/kg iv, AII .05 ug/kg, 90 min",45 mmHg
same,Response change (systolic BP increase to AII),[1]; [4],55 mmHg
same,Response change (systolic BP increase to AII),"[1]; 1 mg/kg iv, AII .1 ug/kg, 45 min",40 mmHg
same,Response change (systolic BP increase to AII),"[1]; 1 mg/kg iv, AII .1 ug/kg, 90 min",65 mmHg
same,Response change (systolic BP increase to AII),"[1]; 2 mg/kg iv, AII .025 ug/kg, 30 min",0 mmHg
same,Response change (systolic BP increase to AII),[1]; [5],0 mmHg
same,Response change (systolic BP increase to AII),[1]; [6],0 mmHg
same,Response change (systolic BP increase to AII),"[1]; 2 mg/kg iv, AII .05 ug/kg, 30 min",0 mmHg
same,Response change (systolic BP increase to AII),[1]; [7],0 mmHg
same,Response change (systolic BP increase to AII),[1]; [8],25 mmHg
same,Response change (systolic BP increase to AII),"[1]; 2 mg/kg iv, AII .05 ug/kg, 180 min",40 mmHg
same,Response change (systolic BP increase to AII),"[1]; 2 mg/kg iv, AII .1 ug/kg, 30 min",0 mmHg
same,Response change (systolic BP increase to AII),[1]; [9],0 mmHg
same,Response change (systolic BP increase to AII),[1]; [10],50 mmHg
same,Response change (systolic BP increase to AII),"[1]; 2 mg/kg iv, AII .1 ug/kg, 180 min",45 mmHg
same,inhibition in vivo at 1 mg/kg,"[1]; 0.5 h, 1 mg/kg iv, AII .05 ug/kg, 30 min",20%
same,inhibition in vivo at 1 mg/kg,"[1]; 0.75 h, 1 mg/kg iv, AII .05 ug/kg, 45 min",50%
same,inhibition in vivo at 2 mg/kg,"[1]; 2.5 h, 2 mg/kg iv, AII .05 ug/kg, 150 min",30%
same,inhibition in vivo at 1 mg/kg,[1]; [11],8%
same,inhibition in vivo at 2 mg/kg,"[1]; iv, 0.5 h, 2 mg/kg iv, AII .025 ug/kg, 30 min",100%
same,inhibition in vivo at 2 mg/kg,"[1]; iv, 0.5 h, 2 mg/kg iv, AII .05 ug/kg, 30 min",100%
same,inhibition in vivo at 2 mg/kg,"[1]; iv, 0.5 h, 2 mg/kg iv, AII .1 ug/kg, 30 min",100%
same,inhibition in vivo at 1 mg/kg,"[1]; iv, 0.75 h, 1 mg/kg iv, AII .1 ug/kg, 45 min",33%
same,inhibition in vivo at 1 mg/kg,"[1]; iv, 1.5 h, 1 mg/kg iv, AII .05 ug/kg, 90 min",10%
same,inhibition in vivo at 1 mg/kg,"[1]; iv, 1.5 h, 1 mg/kg iv, AII .1 ug/kg, 90 min",8%
same,inhibition in vivo at 2 mg/kg,[1]; [12],100%
same,inhibition in vivo at 2 mg/kg,[1]; [13],100%
same,inhibition in vivo at 2 mg/kg,[1]; [14],100%
same,inhibition in vivo at 2 mg/kg,[1]; [15],50%
same,inhibition in vivo at 2 mg/kg,[1]; [16],17%
same,inhibition in vivo at 2 mg/kg,[1]; [17],100%
same,inhibition in vivo at 2 mg/kg,[1]; [18],100%
same,inhibition in vivo at 2 mg/kg,"[1]; iv, 3 h, 2 mg/kg iv, AII .05 ug/kg, 180 min",20%
same,inhibition in vivo at 2 mg/kg,"[1]; iv, 3 h, 2 mg/kg iv, AII .1 ug/kg, 180 min",25%
